Literature values, collected in paper PMC2602858 (Cancer epidemiology, biomarkers & prevention : a …, 2008).

Tests used:
CYP1A2 = conditions: I3C 400 mg twice daily, four weeks
[1] = humans, plasma
women = conditions: I3C 200 and 400 mg twice daily for 4 weeks
[2] = tested on: urinary 2-hydroxyestrone: 16α-hydroxyestrone ratio; conditions: four weeks

OCc1c[nH]c2ccccc12 [I3C, indole-3-carbinol]
effect on CYP1A2 (CYP1A2): marked induction
circulating products detected after oral I3C [1]: the only detectable circulating product was DIM
adverse effects (women): no adverse effects were reported or observed
change of estrone hydroxylation ratio ([2]; I3C 200 mg twice daily): change in the estrone hydroxylation ratio was obtained
change of urinary 2-hydroxyestrone: 16α-hydroxyestrone ratio ([2]; I3C 400 mg twice daily): doubling
